From patent US9504674B2, “TrkB agonists and methods of use” (EMORY UNIVERSITY, priority 2010, dated 2016)

Legend:
active caspase-3 = assay: Kainic acid (KA)-induced neuronal apoptosis in mice (active caspase-3 immunoblotting); format: in vivo, mouse; conditions: 5 mg/kg oral
Procedure: C57BL/6J mice were orally administrated with 5 mg/kg of 4′-DMA-7,8-DHF and 7,8-DHF; at different time points, the mice were ip injected with 20 mg/kg KA for 2 h. The brain lysates were analyzed by immunoblotting with anti-p-TrkB, antiactive caspase-3 antibodies, respectively.
Male C57BL/6 mice aged of 60 days were orally injected with a single dose of 4′-DMA-7,8-DHF or 7,8-DHF ([…]). KA (20 mg/kg) (Sigma, MO) was i.p. injected. Animals were continually monitored for 2 h for the onset of seizure activity. At 0, 4 and 8 h following TrkB agonist treatment, the animals were sacrificed and the hippocampal section lysates were analyzed by immunoblotting with p-TrkB, active caspase-3 and total TrkB antibodies.
To quantitatively compare the anti-apoptotic activity by these two TrkB agonists, cortical neurons were pretreated with various concentrations of 4′-DMA-7,8-DHF and 7,8-DHF for 30 min, followed by […] for 16 h. Cell lysates were quantitatively analyzed with an active caspse-3 ELISA. […] To investigate whether these compounds exert any neuroprotective effects in animals, both compounds (5 mg/kg) were orally injected into mice. At 0, 2 h or 6 h, kainic acid (KA)(20 mg/kg) was administered intraperitoneally. At 2 h, mice were sacrificed and hippocampal regions were prepared. […] This kinetic spectrum tightly coupled to the TrkB activation status observed when treated with 7,8-DHF (FIG. 3C, right panel).

Akt = Akt activation / p-Akt 473 ELISA in primary cortical neurons; format: cell-based, rat; conditions: 500 nM
Procedure: The cell lysates (20 μg/sample) from the neurons treated with various indicated drugs were analyzed by p-Akt ELISA. The quantitative p-Akt activity in ELISA correlated with TrkB activity. Results were expressed as mean (SEM(*P<0.05, compared with the vehicle control group, Student t test, n=3).
Phospho-Akt ELISA assay by the synthetic compounds in cortical neurons. Primary cortical cultures from […] rat embryos were treated with 500 nMof various 7,8-DHF derivatives. The cell lysates were analyzed by the ELISA (left panel) (*, P<0.05; ***, P<0.001 vs vehicle, Student's t test). Different doses of 4′-DMA-7,8-DHF and 7,8-DHF were incubated with primary cortical neurons for 15 min. The cell lysates (20 μg) were analyzed with p-Akt ELISA (right panel) (*, P<0.05; **, P<0.01; ***, P<0.001 vs control; one-way ANOVA: b, P<0.01; c, P<0.001 vs 7,8-DHF at same concentration, Student's t test). […]
7,8-dihydroxyflavone (7,8-DHF) is a small molecular TrkB agonist. […] The cell lysates were analyzed by immunoblotting. […]
To compare the TrkB activation by these synthetic compounds, primary cortical cultures were prepared. […] TrkB activation was monitored at different time points.
Additional compounds are listed as designated from a to m (FIG. 6A). […] The cell lysates were analyzed by immunoblotting. […] Moreover, p-Akt ELISA was monitored to quantitatively analyze the agonistic activities of these compounds.

Akt and MAPK = assay: Downstream p-Akt / p-MAPK signaling in mouse brain after oral administration (immunoblotting, p-Akt ELISA); format: in vivo; conditions: 1 mg/kg oral; for Akt and MAPK activation (TrkB signaling) in mouse brain at 2 h: C57BL/6J mice, p-Akt 473 and p-MAPK immunoblotting
Procedure: The data were from two sets of replicated experiments.
1 mg/kg of various compounds were orally administrated into C57 BL/6J mice and TrkB phosphorylation and its downstream signaling cascades including Akt and MAPK in mouse brain were analyzed by immunoblotting at 2 h.
The brain lysates were prepared and analyzed with p-Akt ELISA kit.
The compounds were orally injected (1 mg/kg) into C57BL/6J mice. The TrkB and its downstream signaling cascades activation at 2 h were examined after drug administration with mouse brain tissues. […] The downstream p-Akt and p-MAPK tightly coupled to p-TrkB signals.

| Compound | KA-induced caspase-3 activation at 4 h (active caspase-3; KA 20 mg/kg i.p., 4 h) | active caspase-3 at 8 h (active caspase-3; KA 20 mg/kg i.p., 8 h) | agonistic activity by p-Akt ELISA in neurons (Akt; 20 min, primary rat cortical neurons (13 DIV)) | Akt and MAPK activation (TrkB signaling) in mouse brain at 2 h (Akt and MAPK) | Akt activation in mouse brain (p-Akt ELISA), compared with compound i (Akt and MAPK; brain lysates, time course) | Akt activation pattern over time (Akt; primary neurons, time course) | KA-induced neuronal apoptosis over time after dosing (active caspase-3; KA 20 mg/kg i.p. at 0, 2 h or 6 h, hippocampal lysates) |
| --- | --- | --- | --- | --- | --- | --- | --- |
| O=c1cc(-c2ccccc2)oc2c(O)c(O)ccc12 [7,8-DHF, 7,8-dihydroxyflavone, reference compound] | reduced | slightly increased |  |  |  |  |  |
| CN(C)c1ccc(-c2cc(=O)c3ccc4nc[nH]c4c3o2)cc1 [compound m, 8-(4-(dimethylamino)phenyl)chromeno[7,8-d]imidazol-6(1H)-one] |  |  | possesses the strongest effect in activating TrkB receptor | potently activated TrkB signaling in mouse brain | more robust and sustained Akt activation than compound i |  |  |
| CN(C)c1ccc(-c2cc(=O)c3ccc(O)c(O)c3o2)cc1 [4′-DMA-7,8-DHF, 4′-dimethylamino-7,8-dihydroxyflavone] |  |  |  | potently activated TrkB signaling in mouse brain |  | temporally coupled to TrkB activation | gradually decreased over time |
